According to patent US20200375980A1, “VETERINARY ANTIPROLACTINIC COMPOSITION” (CEVA SANTE ANIMALE, priority 2018, published 2020):

Tested on: Primiparous sows
Assay: Proof of concept study, WOI (weaning to oestrus interval) in primiparous sows
Assay type: in vivo, Sus scrofa domesticus
Description: All sows included in this study were recruited from a single farm having an historical mean of WOI of 5.4 days, and a percentage of delayed oestrus (8 days) of 7.9%. Weaning was set after about 3 weeks of lactation. Primiparous sows (with normal health status and normal farrowing) were allocated into three groups: Cab_0 (n=19 sows): 5.6 μg/kg of cabergoline by intramuscular injection at weaning day (day 0) in sows, i.e. at the end of lactation, without suckling piglets. Cab_2 (n=30 sows): 5.6 μg/kg of cabergoline by intramuscular injection 2 days before weaning (day-2) in sows, i.e. lactation still pending with suckling piglets. Negative control group (n=29 sows): equivalent dose/volume of a ‘true’ placebo by intramuscular injection at Day-2 and day 0.

[1] = group Cab_0: 5.6 μg/kg intramuscular at weaning day (day 0)
[2] = group Cab_0: 5.6 μg/kg intramuscular at weaning day (day 0), n=19 sows
[3] = group Cab_2: 5.6 μg/kg intramuscular 2 days before weaning (day-2), n=30 sows

impact of the treatment on fertility (all sows diagnosed positively pregnant after artificial insemination following oestrus detection, Cab_0 and Cab_2 groups): no negative impact
Compound: C=CCN1C[C@H](C(=O)N(CCCN(C)C)C(=O)NCC)C[C@@H]2c3cccc4[nH]cc(c34)C[C@H]21 [cabergoline, 1-[(6-allylergolin-8ß-yl)-carbonyl]-1-[3-(dimethylamino)propyl]-3-ethylurea]
sows exhibiting delayed oestrus (after or equal 8 days), number of sows per group [1]: 1/19 | sows exhibiting delayed oestrus (after or equal 8 days), percentage [1]: 5.3% | number of sows in heats, WOI 8-14 days [2]: 1 | number of sows in heats, WOI 3 days [2]: 1 | number of sows in heats, WOI 4 days [2]: 6 | number of sows in heats, WOI 5 days [2]: 8 | number of sows in heats, WOI 6 days [2]: 2 | number of sows in heats, WOI 7 days [2]: 1 | delayed oestrus (after or equal 8 days) (group Cab_2: 5.6 μg/kg intramuscular 2 days before weaning (day-2)): no delayed oestrus | number of sows in heats, WOI 3 days [3]: 2 | number of sows in heats, WOI 4 days [3]: 13 | number of sows in heats, WOI 5 days [3]: 10 | number of sows in heats, WOI 6 days [3]: 5 | number of sows in heats, WOI 7 days [3]: 0
